This is an account of results in patent US8124834B2, “Use of active cytokinin synthase gene” (Riken, priority 2006, dated 2012).

For data set [1], the target named is T1, LOG protein (Oryza sativa subsp. japonica, UniProt Q5ZC82).
T1 sequence (Q5ZC82 1-242): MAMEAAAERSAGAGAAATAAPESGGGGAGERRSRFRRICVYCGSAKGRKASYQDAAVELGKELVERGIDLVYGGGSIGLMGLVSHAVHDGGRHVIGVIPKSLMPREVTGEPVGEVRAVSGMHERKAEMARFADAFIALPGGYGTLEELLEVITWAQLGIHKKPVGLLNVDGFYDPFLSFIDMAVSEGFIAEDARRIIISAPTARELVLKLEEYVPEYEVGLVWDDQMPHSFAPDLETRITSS
The data set can be described thus: Substrate specificity of LOG protein to nucleotide cytokinin forms and AMP. In kind it is biochemical. On the set-up: the protein coding region of the LOG gene cDNA was inserted into pCOLD-I (TaKaRa), a His-tag protein expression vector; made in house; host or cells: E. coli BL21(DE3)[pG-Tf2]. Particulars: 0.02 μg LOG protein, 100 μM substrate, pH 6.5, 4 minutes (iPRDP, iPRTP: 0.01 μg, 2 minutes). As for the experimental part: The reaction specificity of the LOG protein to a nucleotide cytokinin form was analyzed. […] The following 7 types of substrates were used: iPRMP, tZRMP, dihydrozeatin riboside 5′-monophosphate (DZRMP), cZR 5′-monophosphate (cZRMP), iPR 5′-diphosphate (iPRDP), iPR 5′-triphosphate (iPRTP), and AMP. The reaction conditions are as follows. 0.02 μg of the LOG protein was used for a single reaction, and it was reacted with a 100 μM substrate in 200 μl of a reaction solution containing 50 mM Tris-HCl, 1 mM MgCl2, 1 mM DTT, pH 6.5. Thereafter, 0 minute and 4 minutes after initiation of the reaction, 600 μl of cold acetone was added to the reaction solution to terminate the reaction. The reaction solution was left at rest at −80° C. for 30 minutes, and it was then centrifuged at 15,000 rpm for 20 minutes. Thereafter, a supernatant was dried using a centrifugal thickener. […] Only the injection amount was changed to 50 μl. In the case of iPRDP and iPRTP, the amount of a reaction solution was determined to be 100 μl, the mass of a protein used was determined to be 0.01 μg, and the reaction time was determined to be 2 minutes.

Data set [2] has as its target T1, LOG protein. Put plainly: Detection of enzyme activity of recombinant LOG protein with cytokinin substrates (HPLC). In kind it is biochemical. Also noted: the protein coding region of the LOG gene cDNA was inserted into pCOLD-I (TaKaRa), a His-tag protein expression vector; made in house; host or cells: E. coli BL21(DE3)[pG-Tf2]. Particulars: 3 μg LOG protein, 50 μM substrate, pH7, 30° C., 2 hours, HPLC absorption at 270 nm. As for the experimental part: The following 8 types of cytokinin substrates were used: N^6-(delta-2-isopentenyl)adenine (iP), trans-zeatin (tZ), cis-zeatin (cZ), iP riboside (iPR), tZ riboside (tZR), cZ riboside (cZR), iPR 5′-monophosphate (iPRMP), and tZR 5′-monophosphate (tZRMP). As reaction conditions, 100 μl of a reaction solution containing 50 mM Tris-HCl, 1 mM MgCl2, and a 50 μM substrate, pH7 was incubated at 30° C. for 2 hours. Thereafter, 10 μl of 20% acetic acid was added to the reaction solution to terminate the reaction, and the reaction solution was then centrifuged at 15,000 rpm at a room temperature for 20 minutes. […] For elution, solvent C (100% acetonitrile) and solvent D (2% acetic acid) were used.

Data set [3] can be described thus: Enzyme properties of AtLOG 1, 2, 3, 4, 5, 7 and 8 proteins having iPRMP as substrate. Type of data set: biochemical, Arabidopsis thaliana. As for the experimental part: In order to obtain the Km value of the LOG protein to typical substrates iPRMP and tZRMP, the following experiment was carried out. 0.02 μg of LOG protein was used for a single reaction, and it was reacted with a substrate in a substrate concentration of each of 5, 8, 15, 30 and 100 μM in 200 μl of a reaction solution containing 50 mM Tris-HCl, 1 mM MgCl2, 1 mM DTT, pH 6.5. Thereafter, 0 minute, 2 minutes and 4 minutes after initiation of the reaction, 600 μl of cold acetone was added to the reaction solution to terminate the reaction. The reaction solution was left at rest at −80° C. for 30 minutes, and it was then centrifuged at 15,000 rpm for 20 minutes. Thereafter, a supernatant was dried using a centrifugal thickener. The resultant was dissolved in 100 μl of 2% acetic acid, and a reaction product was then detected and quantified under the same conditions as those for the liquid chromatography of Example 2. Only the injection amount was changed to 50 μl. The aforementioned experiment was carried out three times, and the Km value was calculated.
The enzyme activity of each of the purified AtLOG proteins was evaluated under the same reaction conditions as those of Example 2. […] In addition, the enzyme property of each AtLOG protein to iPRMP was determined in the same manner as in Example 5 (Table 4). In Table 4, the Km, Vmax and Kcat values were calculated based on a reaction under the optimal pH condition of each AtLOG protein.

Turning to `CC(CO)CCNc1ncnc2c1ncn2C1OC(COP(=O)(O)O)C(O)C1O` (stereo not drawn) [DZRMP, dihydrozeatin riboside 5′-monophosphate], the “reactivity of LOG protein to the substrate (substrate specificity)” value on LOG protein [1] is given as “uses as a substrate”.
Take `C/C(=C/CNc1ncnc2nc[nH]c12)CO` [cZ, cis-zeatin]: the “reactivity of the substrate with recombinant LOG protein (conversion to base form)” value on LOG protein [2] is “no reactivity”.
As to `C/C(=C/CNc1ncnc2c1ncn2[C@@H]1O[C@H](CO)[C@@H](O)[C@H]1O)CO` [cZR, cZ riboside], on LOG protein [2], the “reactivity of the substrate with recombinant LOG protein (conversion to base form)” value is “no reactivity”.
As to `CC(C)=CCNc1ncnc2nc[nH]c12` [iP, N^6-(delta-2-isopentenyl)adenine], the “reactivity of the substrate with recombinant LOG protein (conversion to base form)” value at LOG protein [2] was “no reactivity”.
Regarding `CC(C)=CCNc1ncnc2c1ncn2[C@@H]1O[C@H](CO)[C@@H](O)[C@H]1O` [iPR, iP riboside], on LOG protein [2], the “reactivity of the substrate with recombinant LOG protein (conversion to base form)” value is “no reactivity”.
On the same count and under the same terms, to `C/C(=C\CNc1ncnc2nc[nH]c12)CO` [tZ, trans-zeatin] belongs “no reactivity”.
For the molecule `C/C(=C\CNc1ncnc2c1ncn2[C@@H]1O[C@H](CO)[C@@H](O)[C@H]1O)CO` [tZR, tZ riboside], on LOG protein [2], the “reactivity of the substrate with recombinant LOG protein (conversion to base form)” value is “no reactivity”.
Turning to “cis-zeatin riboside 5′-monophosphate [cZRMP]”, the “reactivity of LOG protein to the substrate (substrate specificity)” value on LOG protein [1] is “uses as a substrate”.

B1: AtLOG2: Arabidopsis thaliana LOG homolog protein, gene At2g35990, amino acid sequence SEQ ID NO: 6, purified from E. coli (protein, listed as Arabidopsis sp.)
chain: MEETKSRFRRICVFCGSSSGNKTTYHDAALQLAHQLVERNIDLVYGGGSVGLMGLISQAVHDGGRHVLGIIPKSLAPREITGESIGEVITVSTMHQRKAEMGRQADAFIALPGGYGTFEELLEVITWSQLGIHTKPVGLLNVDGFYDSLLTFIDKAVDEGFVSSTARRIIVSAPNAPQLLQLLEEYVPKHDDFVSKMVWDNTTDAFTLEGDSF
Turning to B1, the “Optimal pH” value in data set [3] worked out at 6.5 pH.

B2: AtLOG5: Arabidopsis thaliana LOG homolog protein, gene At4g35190, amino acid sequence SEQ ID NO: 12, purified from E. coli (protein, listed as Arabidopsis sp.)
chain: MEIVKSRFKRVCVFCGSSSGKRECYSDAATDLAQELVTRRLNLVYGGGSIGLMGLVSQAVHEAGGHVLGIIPRTLMDKEITGETYGEVIAVADMHERKAEMARHSDCFIALPGGYGTLEELLEVIAWAQLGIHDKPVGLLNVDGYYNYLLTFIDKAVDDGFIKPSQRHIFVSAPNAKELVQKLEAYKPVNDGVIAKSRWEVEKKVQQPQQQQQVVFCSNTSMQTEIAL
For the molecule B2, in data set [3], the “Optimal pH” value turned out to be 5.4 pH.

B3: AtLOG7: Arabidopsis thaliana LOG homolog protein, gene At5g06300, amino acid sequence SEQ ID NO: 14, purified from E. coli (protein, listed as Arabidopsis sp.)
chain: MEETKSRFKRICVFCGSSSGKKPSYQEAAIQLGNELVERRIDLVYGGGSVGLMGLVSQAVHHGGRHVLGVIPKTLMPREITGETIGEVKAVADMHQRKAEMARQADAFIALPGGYGTLEELLEVITWAQLGIHRKPVGLLNVDGYYNSLLTFIDKAVDEGFISPMARRIIVSAPNAKELVRQLEEYEPEFDEITSKLVWDEVDRISYVPGSEVATAT
Take B3: in data set [3], the “Optimal pH” value stood at 6.5 pH.

B4: AtLOG1: Arabidopsis thaliana LOG homolog protein, gene At2g28305, amino acid sequence SEQ ID NO: 4, purified from E. coli (protein, listed as Arabidopsis sp.)
chain: MEIESKFKRICVFCGSSAGNKVSYKDAAIELGTELVSRNIDLVYGGGSIGLMGLISQAVFNGGRHVIGVIPKTLMPREITGETVGEVKAVADMHQRKAEMAKHSDAFIALPGGYGTLEELLEVITWAQLGIHDKPVGLLNVEGYYNSLLSFIDKAVEEGFISPTARHIIVSAPSAKELVKKLEDYVPRHEKVASKKSWEMEQIGLSPTCEISR
As for B4, the “Optimal pH” value in data set [3] amounted to 6.5 pH.

B5: AtLOG8: Arabidopsis thaliana LOG homolog protein, gene At5g11950, amino acid sequence SEQ ID NO: 16, purified from E. coli (protein, listed as Arabidopsis sp.)
chain: MEDNQRSRFRKICVFCGSHSGHREVFSDAAIELGNELVKRKIDLVYGGGSVGLMGLISRRVYEGGLHVLGIIPKALMPIEISGETVGDVRVVADMHERKAAMAQEAEAFIALPGGYGTMEELLEMITWSQLGIHKKTVGLLNVDGYYNNLLALFDTGVEEGFIKPGARNIVVSAPTAKELMEKMEEYTPSHMHVASHESWKVEELGDYPGQENKPQ
With B5, the “Optimal pH” value in data set [3] is listed as 7.0 pH.

B6: AtLOG4: Arabidopsis thaliana LOG homolog protein, gene At3g53450, amino acid sequence SEQ ID NO: 10, purified from E. coli (protein, listed as Arabidopsis sp.)
chain: MEVNNETMQKSKFGRICVFCGSSQGKKSSYQDAAVDLGNELVLRNIDLVYGGGSIGLMGLVSQAVHDGGRHVIGVIPKTLMPRELTGETVGEVRAVADMHQRKAEMARHSDAFIALPGGYGTLEELLEVITWAQLGIHDKPVGLLNVDGYYNSLLSFIDKAVEEGFISTNARQIIISAPTAKELVKKLEEYSPCHESVATKLCWEIERIDYSSED
Consider B6, for which the “Optimal pH” value in data set [3] was 6.5 pH.

B7: AtLOG3: Arabidopsis thaliana LOG homolog protein, gene At2g37210, amino acid sequence SEQ ID NO: 8, purified from E. coli (protein, listed as Arabidopsis sp.)
chain: MEIKGESMQKSKFRRICVFCGSSQGKKSSYQDAAVDLGNELVSRNIDLVYGGGSIGLMGLVSQAVHDGGRHVIGIIPKTLMPRELTGETVGEVRAVADMHQRKAEMAKHSDAFIALPGGYGTLEELLEVITWAQLGIHDKPVGLLNVDGYYNSLLSFIDKAVEEGFISPTAREIIVSAPTAKELVKKLEEYAPCHERVATKLCWEMERIGYSSEE
As for B7, the “Optimal pH” value in data set [3] is 6.5 pH.
